A word on the IC50: it is the point on the concentration scale where inhibition reaches its midpoint.

From ChEMBL document CHEMBL1150089, “Sodwanones G, H, and I, new cytotoxic triterpenes from a marine sponge” (J Nat Prod, 1995) come the findings set out here.

Type in all cases: functional, cell-based
The subject of one assay is HT-29. The assay is described as follows: Cytotoxicity against human HT-29 cells after 3 days. The settings on record: HT-29, 72 h.
The subject of a further assay is P388. Put plainly: Cytotoxicity against mouse P388 cells after 3 days. The note with it: P388, 72 h.
For a further assay, the system named is A549. Put plainly: Cytotoxicity against human A549 cells after 3 days. The note with it: A549, 72 h.
A further assay has as its system SK-MEL-28. The assay is described as follows: Cytotoxicity against human SK-MEL-28 cells after 3 days. The settings on record: SK-MEL-28, 72 h.

Consider `CC1=C(CC[C@@H]2[C@H](C)CC[C@@H]3OC(C)(C)C(=O)CC[C@]32C)[C@@]2(C)CC[C@@H](O)C(C)(C)[C@@H]2CC1=O` [SODWANONE H], for which the IC50 was 10.5 µM in the assay on HT-29, 10.5 µM in the assay with P388, 0.02 µM with A549 and 10.5 µM in the assay with SK-MEL-28.

Consider `CC(C)C(=O)CC[C@@]1(C)[C@H]2CC[C@H](C)[C@]1(CC[C@@]1(C)[C@@H](C)CC[C@@H]3OC(C)(C)[C@]4(O)CC[C@@]31O4)O2` [SODWANONE I], for which the IC50 in the assay with HT-29, in the assay on P388, with A549 and with SK-MEL-28 was 20 µM throughout.

`CC1=C(CC[C@@H]2[C@@]3(CC[C@@H]4OC(C)(C)C(=O)CC[C@]42C)CO3)[C@@]2(C)CCC(=O)C(C)(C)C2=C(O)C1=O` [SODWANONE G]: the IC50 in the assay with HT-29 stood at 2 µM; in the assay on P388 it was 2 µM; with A549, 0.2 µM; in the assay on SK-MEL-28 it was 2 µM.
